Experimental data taken from patent US20050014849A1, “Antifungal phenylethylene” (priority 2001, published 2005).
Converted amounts (≈) assume the structure as drawn. “Also recorded” adds a separate entry of the source.

Tests used:
[1] = test system: Candida albicans ATCC 90028; assay: NCCLS disk susceptibility test; format: cell-based; conditions: disk diffusion
Method: (§1) Antimicrobial activity was assayed by National Committee for Clinical Laboratory Standards (NCCLS) disk susceptibility tests. Isolated colonies from overnight cultures were suspended and diluted as recommended to yield approximately 1-2×10^8 cfu/ml, and 50 μl of this preparation immediately spread on agar plates. NCCLS recommended agar media were used for S. pneumoniae and N. gonorrhoeae, and Mueller-Hinton agar for all other bacteria. Yeast strains were tested on SDA. Excess moisture was absorbed for 10 min prior to application of 6 mm paper discs containing two-fold dilutions of TMPN in sterile DMSO.

[2] = test system: Neisseria gonorrhoeae ATCC 49226; assay: NCCLS disk susceptibility test; format: cell-based; conditions: disk diffusion
Method: as §1

[3] = test system: Klebsiella pneumoniae Presque Isle 344; assay: NCCLS disk susceptibility test; format: cell-based; conditions: disk diffusion
Method: as §1

[4] = test system: Enterococcus faecalis ATCC 29212; assay: NCCLS disk susceptibility test; format: cell-based; conditions: disk diffusion
Method: as §1

[5] = test system: Micrococcus luteus Presque Isle 456; assay: NCCLS disk susceptibility test; format: cell-based; conditions: disk diffusion
Method: as §1

[6] = test system: Cryptococcus neoformans ATCC 90112; assay: NCCLS disk susceptibility test; format: cell-based; conditions: disk diffusion
Method: as §1

[7] = test system: Proteus vulgaris Presque Isle 365; assay: NCCLS disk susceptibility test; format: cell-based; conditions: disk diffusion
Method: as §1

[8] = test system: Staphylococcus epidermidis Presque Isle 4653; assay: NCCLS disk susceptibility test; format: cell-based; conditions: disk diffusion
Method: as §1

[9] = test system: Streptococcus pneumoniae ATCC 6303; assay: NCCLS disk susceptibility test; format: cell-based; conditions: disk diffusion
Method: as §1

[10] = test system: Pseudomonas aeruginosa Presque Isle 99; assay: NCCLS disk susceptibility test; format: cell-based; conditions: disk diffusion
Method: as §1

[11] = test system: Enterobacter cloacae ATCC 13047; assay: NCCLS disk susceptibility test; format: cell-based; conditions: disk diffusion
Method: as §1

[12] = test system: Staphylococcus aureus ATCC 29213; assay: NCCLS disk susceptibility test; format: cell-based; conditions: disk diffusion
Method: as §1

[13] = test system: Escherichia coli ATCC 25922; assay: NCCLS disk susceptibility test; format: cell-based; conditions: disk diffusion
Method: as §1

[14] = test system: Bacillus subtilis Presque Isle 620; assay: NCCLS disk susceptibility test; format: cell-based; conditions: disk diffusion
Method: as §1

[15] = test system: Stenotrophomonas maltophilia ATCC 13637; assay: NCCLS disk susceptibility test; format: cell-based; conditions: disk diffusion
Method: as §1

A. nidulans strain FGSC4 = assay: Broth macrodilution MIC/MFC, filamentous fungi; format: cell-based, Aspergillus nidulans
Method: Susceptibility testing of filamentous fungi was also conducted. Broth macrodilution susceptibility testing of P. lilacinus, Rhizopus spp. and Aspergillus spp. was performed in accordance with a proposed standardized procedure with slight modification. To induce conidium and sporangiospore formation, fungi were grown on PDA slants at 35° C. for 6 days (P. lilacinus, Rhizopus spp., all Aspergillus species except A. nidulans) or 3 days (A. nidulans). Fungal slants were covered with sterile 0.85% NaCl (P. lilacinus, Rhizopus spp., all Aspergillus species except A. nidulans) or 0.05% Tween 80 (A. nidulans), and suspensions were made by gently probing the colonies with the tip of a sterile Pasteur pipette. The resulting mixture of hyphal fragments and conidia or sporangiospores was withdrawn and transferred to a sterile clear microcentrifuge tube, and heavy particles were allowed to settle for 10 min. […] Susceptibility to TMPN was then determined by broth macrodilution as described above for yeast isolates. […]
(§2) Minimum fungicidal concentrations (MFCs) were determined by subculturing 0.1 ml from each tube with no visible growth in the MIC broth macrodilution series onto the appropriate drug-free plates (see Fungal Strains section above).

[16] = test system: 132 reference strains and clinical isolates; assay: Broth macrodilution MIC/MFC, all fungi tested (summary); format: cell-based
Method: TMPN was screened against yeasts by the broth macrodilution assay according to the NCCLS [7]. Yeasts were suspended and diluted as recommended to yield final inocula ranging from 0.5-2.5×10^3 cfu/ml. Tests were performed in sterile 12 by 75 mm plastic tubes containing two-fold dilutions of TMPN in 0.165 M morpholinepropanesulfonic acid buffered RPMI 1640 medium (pH 7.0). One tube was again left drug free (but contained an equivalent volume of DMSO) for a turbidity control. Tubes were incubated without agitation at the appropriate temperature (see Fungal Strains section above). MICs were determined after 72 h for Cryptococcus and after 48 h for other yeast genera. The MIC was defined as the lowest concentration of TMPN that inhibited all visible growth of the test organism (optically clear).
(§3) Susceptibility testing of filamentous fungi was also conducted. Broth macrodilution susceptibility testing of P. lilacinus, Rhizopus spp. and Aspergillus spp. was performed in accordance with a proposed standardized procedure with slight modification. To induce conidium and sporangiospore formation, fungi were grown on PDA slants at 35° C. for 6 days (P. lilacinus, Rhizopus spp., all Aspergillus species except A. nidulans) or 3 days (A. nidulans). Fungal slants were covered with sterile 0.85% NaCl (P. lilacinus, Rhizopus spp., all Aspergillus species except A. nidulans) or 0.05% Tween 80 (A. nidulans), and suspensions were made by gently probing the colonies with the tip of a sterile Pasteur pipette. The resulting mixture of hyphal fragments and conidia or sporangiospores was withdrawn and transferred to a sterile clear microcentrifuge tube, and heavy particles were allowed to settle for 10 min. The upper homogenous suspension was transferred to a sterile microcentrifuge tube, vortexed for 15 s, adjusted spectrophotometrically, and diluted in sterile 0.165 M MOPS-buffered RPMI medium, pH 7.0, to yield final inocula ranging from 0.5-2.5×10^3 cfu/ml. Susceptibility to TMPN was then determined by broth macrodilution as described above for yeast isolates. MICs were read after 48 h The MIC was defined as the lowest concentration of TMPN that inhibited all visible growth of the test organism (optically clear).
as §2
(§4) Possible host effects were also evaluated. Broth macrodilution assays were performed with RPMI medium prepared at pH 5, pH 6, and pH 7, and in RPMI medium with and without 50% normal human serum (Lampire Biological Labs). The pH experiments were performed twice on separate days.

[17] = test system: Aspergillus fumigatus ATCC 96918; assay: Broth macrodilution MIC/MFC, filamentous fungi; format: cell-based; conditions: for MFC / MIC: Aspergillus fumigatus
Method: as §3, §2, §4

[18] = Aspergillus fumigatus ATCC 96918
[19] = ATCC96918, Aspergillus fumigatus ATCC 96918, 50% human serum
[20] = ATCC96918, Aspergillus fumigatus ATCC 96918, no serum
[21] = ATCC96918, pH 5, Aspergillus fumigatus ATCC 96918, pH 5
[22] = ATCC96918, pH 5, Aspergillus fumigatus ATCC 96918, pH 5, repeat experiment
[23] = ATCC96918, pH 6, Aspergillus fumigatus ATCC 96918, pH 6
[24] = ATCC96918, pH 6, Aspergillus fumigatus ATCC 96918, pH 6, repeat experiment
[25] = ATCC96918, pH 7, Aspergillus fumigatus ATCC 96918, pH 7
[26] = ATCC96918, pH 7, Aspergillus fumigatus ATCC 96918, pH 7, repeat experiment

## COc1cc(C=C[N+](=O)[O-])cc(OC)c1OC [TMPN, 1-(3′,4′,5′-trimethoxyphenyl)-2-nitro-ethylene]
[1]
  MIC: 6.25-12.5 μg/disk
[2]
  MIC: 0.39-0.78 μg/disk
[3]
  MIC: >100 μg/disk
[4]
  MIC: 50-100 μg/disk
[5]
  MIC: 50-100 μg/disk
[6]
  MIC: 0.78-1.56 μg/disk
[7]
  MIC: 12.5-25 μg/disk
[8]
  MIC: 50-100 μg/disk
[9]
  MIC: 3.12-6.25 μg/disk
[10]
  MIC: >100 μg/disk
[11]
  MIC: >100 μg/disk
[12]
  MIC: 3.12-6.25 μg/disk
[13]
  MIC: >100 μg/disk
[14]
  MIC: 50-100 μg/disk
[15]
  MIC: >100 μg/disk
A. nidulans strain FGSC4
  MFC Range: 16 µg/mL (≈ 66.9 µM)
  MIC Range: 8 µg/mL (≈ 33.4 µM)
[16]
  antifungal spectrum in broth macrodilution assays: broad-spectrum antifungal activity
[16]; 50% human serum
  activity in the presence of serum: not active against all species
[16]; 132 reference strains and clinical isolates, incl. those resistant to fluconazole, ketoconazole, amphotericin B or flucytosine
  fungicidal action: fungicidal for the majority
[16]; pH 5, pH 6 and pH 7
  effect of media pH on activity (MICs and MFCs): unaffected; also recorded: identical or differed by no more than a single 2-fold dilution
[17]; [18]
  MFC Range: >64 µg/mL
  MIC Range: 8 µg/mL (≈ 33.4 µM)
[17]; [19]
  MFC: > 64 µg/mL
  MIC: 16 µg/mL (≈ 66.9 µM)
[17]; [20]
  MFC: 16 µg/mL (≈ 66.9 µM)
  MIC: 8 µg/mL (≈ 33.4 µM)
[17]; [21]
  MFC: 32 µg/mL (≈ 134 µM)
  MIC: 4 µg/mL (≈ 16.7 µM)
[17]; [22]
  MFC: > 64 µg/mL
  MIC: 8 µg/mL (≈ 33.4 µM)
[17]; [23]
  MFC: 32 µg/mL (≈ 134 µM)
  MIC: 4 µg/mL (≈ 16.7 µM)
[17]; [24]
  MFC: > 64 µg/mL
  MIC: 8 µg/mL (≈ 33.4 µM)
[17]; [25]
  MFC: 32 µg/mL (≈ 134 µM)
  MIC: 4 µg/mL (≈ 16.7 µM)
[17]; [26]
  MFC: > 64 µg/mL
  MIC: 8 µg/mL (≈ 33.4 µM)
